Assay results published in US12419890B2, “Administration of sumo-activating enzyme inhibitor and checkpoint inhibitors” (Takeda Pharmaceutical Company Limited, priority 2019, dated 2025).

Test system: B16-F10 syngeneic mouse melanoma-derived subcutaneous tumor
Assay: B16-F10 Study 7: mouse B16-F10 syngeneic tumor model, individual tumor volume
Assay type: in vivo
Conditions: delay from day 7 to day 10-12; of the 8 implanted tumors; Compound I-263a 7.5 mg/kg IV BIWx3 till Day 17
Method: B16-F10 Study 7: B16-F10 is a mouse melanoma cell line. B16-F10 mouse syngeneic tumor model was generated by subcutaneous inoculation with 0.08×10^6 B16-F10 cells (cell suspension) in 11 weeks old female C57BL/6 mice (Taconic Biosciences, Rensselaer, NY) in the flank. When the mean tumor volume reached approximately 50 mm^3, the animals were randomized into one vehicle control and five treatment groups (n=8/group). Mice were then dosed with 20% HPbCD or Compound I-263a or anti-mouse PD-1 antibody over a 17-day period. Tumor growth and body weight were measured twice per week during the treatment and post-treatment periods, and mice were humanely euthanized once they had reached their humane endpoint.
Study 7: A 0.75 mg/mL stock solution of Compound I-263a was formulated weekly in 20% HPβCD and administered intravenously (IV) based on exact animal body weight on each day of treatment, using a dosing volume of 10 mL/kg body weight. Final doses received were 7.5 mg/kg. Dosing volume for Compound I-263a was 0.2 mL. […]
Tumors were measured twice weekly using vernier calipers. Tumor volumes were calculated using standard equation: V=W^2×L/2, where V=volume, W=width, and L=length for the tumor. […] Tumor size and body weight were measured twice a week for the duration of the study. […]

Cc1sc(C(=O)c2cncnc2N[C@@H]2C[C@H](COS(N)(=O)=O)[C@@H](O)C2)cc1[C@@H]1NCCc2ccc(Cl)cc21 [Compound I-263a, [(1R,2S,4R)-4-{[5-({4-[(1R)-7-chloro-1,2,3,4-tetrahydroisoquinolin-1-yl]-5-methyl-2-thienyl}carbonyl)pyrimidin-4-yl]amino}-2-hydroxycyclopentyl]methyl sulfamate]
tumors with tumor growth delay: 2
